Molecules are shown by their SMILES.

The target of the assay is T1, Flag-mUSP18 (Mus musculus, UniProt Q9WTV6).
T1 construct: expressed in transfected cells; host or cells: HEK293T
T1 sequence (Q9WTV6 1-368): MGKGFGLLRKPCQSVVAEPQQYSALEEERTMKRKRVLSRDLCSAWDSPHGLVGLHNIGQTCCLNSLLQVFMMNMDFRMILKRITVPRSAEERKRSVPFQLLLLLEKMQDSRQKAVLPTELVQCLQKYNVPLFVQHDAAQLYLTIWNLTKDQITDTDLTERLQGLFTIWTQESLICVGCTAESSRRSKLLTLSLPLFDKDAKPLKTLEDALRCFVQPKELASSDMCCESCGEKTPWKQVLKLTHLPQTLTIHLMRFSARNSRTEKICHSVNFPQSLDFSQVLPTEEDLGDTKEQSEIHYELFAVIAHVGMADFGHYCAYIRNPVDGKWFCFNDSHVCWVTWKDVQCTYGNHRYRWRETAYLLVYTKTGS
Description: Gel-based ABPP with Rho-mISG15ct-PA probe in HEK293T cells overexpressing Flag-mUSP18. It is filed as cell-based, murine. As to conditions: live HEK293T cells, Flag-mUSP18, 4 h treatment. How it is done:
To assess the cellular target engagement and cell permeability of these inhibitors, we performed activity‐based protein profiling. […] Following washing and cell lysis, cell extracts were incubated with a Rhodamine‐tagged murine ISG15 C‐terminal domain propargylamide activity‐based probe (Rho‐mISG15ct‐PA), which covalently labels the active site cysteine of active deISGylating enzymes.^[ [41] ^] The labelled enzymes were resolved by SDS‐PAGE and imaged by in‐gel fluorescence, where inhibition of USP18 is reflected by disappearance of the USP18‐probe‐labelled bands around 55 kDa (Figures 6a, S11A). All three inhibitors engaged with cellular mUSP18 in a dose‐dependent manner, with BB07CA902 and BB07CA28 showing efficient inhibition already at 1 µM concentration. […] The in‐cell selectivity of these inhibitors for USP18 over DUBs was confirmed in a similar ABPP experiment using a Rhodamine‐tagged ubiquitin propargylamide probe (Rho‐Ub‐PA),^[ [42] ^] which labels the active site cysteine of all active cysteine DUBs.
Figure 6 Inhibition of murine USP18 activity in living cells. a) Gel‐based ABPP potency assessment using a Rho‐mISG15ct‐PA probe in HEK293T cells overexpressing Flag‐mUSP18. At 24 h following transfection, cells were incubated with DMSO or increasing concentrations of indicated inhibitors for 4 h, lysed, and treated with Rho‐mISG15ct‐PA probe. Top panel: fluorescence scan. Middle panel: anti‐Flag western blot. Bottom panel: anti‐GAPDH western blot confirms equal loading. b) Accumulation of ISGylation in mouse IFN‐β‐stimulated EL4 cells. At 24 h following mouse IFN‐β treatment, cells were incubated with DMSO or increasing concentrations of indicated inhibitors for 4 h, lysed, and treated with Rho‐mISG15ct‐PA probe. […] Middle panel: fluorescence scan. […]
Samples were then diluted 3-fold with water and analyzed by mass spectrometry by injecting 2 μL into a Waters XEVO-G2 XS Q-TOF mass spectrometer equipped with an electrospray ion source in positive mode (capillary voltage 1.2 kV, desolvation gas flow 900 L/h, T = 60 °C) with a resolution of R = 26,000. […]

As for `Cc1cc(C(=O)N[C@H]2C[C@@H]3CN(C#N)C[C@@H]3C2)ccc1Br` [BB07CA28], the “concentration at which inhibition of mUSP18 probe labelling is observed” value was at most 1 µM.
As to `Cc1cc(C(=O)N[C@H]2C[C@@H]3CN(C#N)C[C@@H]3C2)ccc1C(C)C` [BB07CA902], the “concentration at which inhibition of mUSP18 probe labelling is observed” value is listed as at most 1 µM.

Values taken from publication PMC12668310, “High‐Throughput Synthesis and Screening of a Cyanimide Library Identifies Selective Inhibitors of ISG15‐Specific Protease mUSP18” (Angewandte Chemie (International Ed. in English), 2025).
